The source of these data is patent publication US20230227506A1, “Fatty Acid Complexes Of Coronavirus Spike Protein And Their Use” (priority 2020, published 2023).

Series [1] deals with SARS-CoV-2 Spike protein. The series is classed as cell-based.
In another series the test system is coronaviruses. The note with it: reference (4); cited from earlier work.
For series [2] the following is noted: cited from earlier work.
The subject of series [3] is SARS-CoV-2 reporter virus (rSARS-CoV-2/Wuhan/ORF7-tGFP). The series is classed as cell-based.
Series [4] relates to SARS-CoV-2 Spike protein. The series is classed as binding.
Series [5] concerns SARS-CoV-2 S glycoprotein. The series is classed as binding.
In a further series the test system is Caco-2-ACE2 cells. The note with it: 50 uM linoleic acid.
For series [6], the target named is T1, SARS-CoV-2 Spike Protein receptor binding domain (RBD) (Severe acute respiratory syndrome coronavirus 2, UniProt P0DTC2).
T1 construct: SARS-CoV-2 RBD (amino acids R319 to F541); made in house; host or cells: Hi5 insect cells, MultiBac baculovirus

The structures appear in SMILES notation. “Also recorded” adds a separate entry of the source. Read-outs that look alike come from different tables or passages of the source.

In the case of `CCCCC/C=C\C/C=C\C/C=C\C/C=C\CCCC(=O)O` [AA, arachidonic acid], in the series on SARS-CoV-2 Spike protein [1], the “Minivirus-ACE2 cell binding compared to ApoS Miniviruses” value is recorded as “able to reduce”. The “Virus replication on exogenous supplement” value in the series with coronaviruses was “suppressed virus replication”.
For `CCCCC/C=C\C/C=C\CCCCCCCC(=O)O` [LA, linoleic acid], the “Minivirus-ACE2 cell binding compared to ApoS Miniviruses” value with SARS-CoV-2 Spike protein [1] is given as “able to reduce”. Moreover, in series [2], the Water solubility entry is given as “about 100 mg/l” and the “Water solubility (in words)” value is given as “extremely low water solubility”. The “Water solubility (in words)” value in series [2] (listed as Linoleic Acid) was “virtually insoluble in water”. Moreover, in series [3], the “Effect on SARS-CoV-2 replication factories” value was “disrupted; also recorded: wrecked”; the “Effect on viral particles” value is “visible deformation and destruction”. Besides, in the series on SARS-CoV-2 Spike protein [4], the “Binding of FFA in Spike protein verified by LC-MS/MS” value (from here on “Binding of FFA”) is “successfully verified”. The “Binding to S in the trimer seen by cryo-EM” value in series [5] is “tightly binds”. Also, the “Cell death of treated infected cells” value with Caco-2-ACE2 cells is on record as “significant cell death was not observed”. In addition, the “Virus replication on exogenous supplement” value with coronaviruses was “suppressed virus replication”. In series [6], the “Binding to immobilized RBD quantified by SPR” value is recorded as “high affinity binding”.
Regarding `CCCCCCCC/C=C\CCCCCCCC(=O)O` [OA, oleic acid], the “Minivirus-ACE2 cell binding compared to ApoS Miniviruses” value with SARS-CoV-2 Spike protein [1] is “able to reduce”. In the series on SARS-CoV-2 Spike protein [4], the “Binding of FFA” value is “successfully verified”. Moreover, in series [6], the “Binding to immobilized RBD quantified by SPR” value was “High affinity binding”.
Turning to `CCCCCCCCCCCCCCCC(=O)O` [PA, palmitic acid], the “Minivirus-ACE2 cell binding compared to ApoS Miniviruses” value with SARS-CoV-2 Spike protein [1] is reported as “did not significantly reduce”. For the same compound, the “Binding of FFA” value with SARS-CoV-2 Spike protein [4] is listed as “not”.
